54 compounds from patent US6335339B1, “Triazine antiviral compounds” (Scriptgen Pharmaceuticals, Inc., priority 1998, dated 2002) can be followed below.

Each structure is given as a SMILES string.

One assay relates to HBV. Briefly: antiviral assay in 2.2.15 cells producing HBV (virion DNA dot blot). To be noted: Hepatitis B virus, 216 h, read-out: Antiviral EC50 (μM). It counts as cell-based, Hepatitis B virus. An excerpt: Several cell lines and cell culture assays have been developed to identify potential therapeutics effective against chronic HBV infection. One of these cell lines, 2.2.15, has been used in a standardized assay that has repeatedly proven to be an accurate model of chronic cellular HBV replication and a predictive model of antiviral response for chronic hepadnaviral infection in vivo. 2.2.15 cells contain copies of the complete HBV genome integrated into the cell's genome, and 2.2.15 cells are not susceptible to infection by HBV. (Sells, M. A. et al., J. Virol. 62 (8): 2836-2844 (1988)). These cells express HBV genes producing complete HBV particles capable of infecting chimpanzees (Acs, G. et al., Proc. Natl. Acad. Sci. USA 84 (13): 4641-4644 (1987)). Briefly, 2.2.15 cells are cultured and pretreated with a test compound for about 9 days, at which point the media are harvested and subjected to dot-blot hybridization to detect HBV virion DNA.
The antiviral activity of the compounds of the present invention is measured by the methods described in Korba and Gering, Antiviral Res. 19: 55-70 (1992).
This assay format is well suited to the screening of test compounds for potential antiviral activity. The assay provides a threshold assessment of antiviral activity by measuring (i) the levels of HBV virion release from the cells and (ii) cytotoxicity. Two rows of cells were used for each compound, and 4 rows for the assay controls (two for untreated, and two for positive antiviral control, e.g., 3TC). After incubating in the presence of test compound for 9 days, the media were harvested, transferred to 96-well U-bottom plates, and centrifuged. The supernatants were transferred to tubes for dot blot hybridization analysis of HBV virion DNA. The medium was aspirated off of the toxicity plates and discarded. Toxicity plates were then incubated with neutral red dye (MTT can also be used if preferred), washed with DPBS, developed with an acetic acid-ethanol solution, and assayed in a plate reader.
1. 2.2.15 cells were seeded into 96-well, flat bottom tissue culture plates as described above. Duplicate plates were used for the antiviral treatments for each test compound (up to 8 compounds per pair of plates); after three to four days, cells were confluent and medium was yellow in color; the medium was removed and replaced with 100 μl RP2 24 hours before the beginning of drug treatment.
i) For each compound, a total of 4 concentrations were examined; this required 9 sets of 4 sterile, 1.1 ml minitubes (36 tubes per compound). Into the first tube of each set, sufficient compound was aliquoted to make up 700 μl (for 10-fold dilution series) or 980 μl (for 3.3-fold dilution series) of the highest test concentration; the other tubes were left empty.
i) For a 10-fold dilution series: to the first (compound containing) tube was added 700 μl (175 μl×4). 630 μl (210 μl×3) RP2 culture medium was added to the remaining 3 tubes. The first tube was mixed by pipeting up and down with a pipetman (a multichannel pipetman permits the simultaneous processing of multiple compounds). 70 μl of test compound-containing medium were serially transferred from the first tube to the other 3 tubes, taking care to thoroughly mix each tube before transferring medium;
b) 100 μl of each dilution of every compound was added to each of 6 wells (3 wells per plate) using the configuration listed below as an example. The lowest concentration was added first, and the same tips were used to add the higher concentrations. The untreated cells received 100 μl RP2 per well (untreated cells have to be carried on only one pair of the antiviral assay plates).
c) Treatments were repeated daily for 9 days. For the last day of treatment, and additional 200 μl RP2 were added to each well of the antiviral assay plates after the wells are treated with the test compounds (a total of 300 μl medium per well).
6. […]
Consider `CCN(CC)c1nc(NCc2ccccc2)nc(N/N=C/c2ccccc2O)n1` [Compound 155, 2-hydroxybenzaldehyde N-[4-(benzylamino)-6-(diethylamino)-1,3,5-triazin-2-yl]hydrazone], for which the EC50 – broadly, the concentration needed to bring the measured effect to its halfway point – is 0.063 µM.

Staying with this assay, now noted: Hepatitis B virus, 216 h; extra-cellular virus reduced by 50%; 2.2.15 cells, 9 days treatment; read-out: Antiviral EC50.
With `CCN(CC)c1nc(NCc2ccccc2)nc(N/N=C/c2ccccc2O)n1` [Compound 155, 2-hydroxybenzaldehyde N-[4-(benzylamino)-6-(diethylamino)-1,3,5-triazin-2-yl]hydrazone], the 50% effective concentration (EC50) came out at 0.001 µM.

Staying with this assay, now noted: extra-cellular virus reduced by 50%; 2.2.15 cells, 9 days treatment; read-out: Antiviral EC50.
On to `COc1c(C=NNc2nc(Nc3ccccc3)nc(Nc3ccccc3)n2)ccc(Br)c1O` [Compound 168], for which the EC50 stood at 0.7 µM.
With `Cc1ccc(Nc2nc(NN=Cc3ccccc3)nc(Nc3ccccc3)n2)cc1` [Compound 25], the concentration giving a half-maximal response (EC50) was found to be 1 µM.
The same measure, in the same setting: the same measure for `CCN(CC)c1nc(NN=Cc2ccc(Cl)c([N+](=O)[O-])c2)nc(Nc2cc(C)ccc2C)n1` [Compound 214]: more than 100 µM.
Take `Cc1ccccc1Nc1nc(NN=Cc2ccc(I)cc2)nc(Nc2ccc([N+](=O)[O-])cc2)n1` [Compound 10]: the concentration for a half-maximal effect (EC50) was more than 100 µM.
Consider `Oc1ccc2ccccc2c1C=NNc1nc(Nc2cccc3ccccc23)nc(N2CCOCC2)n1` [Compound 167], for which the 50% effective concentration (EC50) is 1.7 µM.
Regarding `Cc1ccc(Nc2nc(Nc3cccc(C(F)(F)F)c3)nc(N3CCOCC3)n2)cc1C` [Compound 251], the EC50 was more than 100 µM.
Take `Cc1ccc(Nc2nc(NN=Cc3ccc(Cl)cc3)nc(N3CCOCC3)n2)cc1` [Compound 249]: the concentration for a half-maximal effect (EC50) was more than 100 µM.
Consider `COc1ccc(C=NNc2nc(NCc3ccccc3)nc(Nc3ccccc3)n2)cc1` [Compound 165], for which the EC50 is 3.8 µM.
With `FC(F)(F)c1cccc(Nc2nc(NN=Cc3ccc(Cl)cc3)nc(N3CCOCC3)n2)c1` [Compound 120], the concentration for a half-maximal effect (EC50) is more than 100 µM.
For the compound `CCCCN(CCCC)c1nc(NN=Cc2ccc(Cl)cc2)nc(Nc2ccc([N+](=O)[O-])cc2)n1` [Compound 16], the concentration for a half-maximal effect (EC50) amounted to 15 µM.
Consider `COc1ccc(Nc2nc(NN=Cc3ccc(O)cc3O)nc(Nc3ccccc3)n2)cc1` [Compound 158], for which the EC50 was 42 µM.
Turning to `Cc1ccc(C=NNc2nc(Nc3ccc([N+](=O)[O-])cc3)nc(Nc3ccccc3C)n2)cc1` [Compound 15], the EC50 was determined as 0.5 µM.
Consider `COc1ccc(Nc2nc(NCc3cccc([N+](=O)[O-])c3)nc(NCc3cc(F)ccc3F)n2)cc1OC` [Compound 225], for which the EC50 is more than 100 µM.
Consider `CN(C)c1nc(NCc2ccccc2)nc(NCc2cccs2)n1` [Compound 192], for which the EC50 is more than 100 µM.
Take `Cc1ccc(Nc2nc(NCc3ccccc3)nc(Nc3ccc([N+](=O)[O-])cc3)n2)cc1C` [Compound 194]: the concentration for a half-maximal effect (EC50) was more than 100 µM.
For `COc1cccc(C=NNc2nc(Nc3ccccc3)nc(N3CCCC3)n2)c1O` [Compound 170], the EC50 is 4 µM.
On the same count and under the same terms, the same measure for `COc1ccc(Nc2nc(NCCc3ccccc3)nc(N(C)C)n2)cc1OC` [Compound 252]: 9.5 µM; for `O=[N+]([O-])c1ccc(Nc2nc(NCc3ccccc3)nc(N3CCOCC3)n2)cc1` [Compound 231]: more than 100 µM.
On to `CCCCN(CCCC)c1nc(N/N=C/c2cc(I)cc(I)c2O)nc(Nc2ccc([N+](=O)[O-])cc2)n1` [Compound 8], for which the half-maximal effective concentration (EC50) was more than 100 µM.
On the same count and under the same terms, the same measure for `COc1c(C=NNc2nc(N3CCCC3)nc(N3CCOCC3)n2)cccc1[N+](=O)[O-]` [Compound 193]: more than 100 µM; for `Cc1ccc(Nc2nc(NN=Cc3ccccc3O)nc(Nc3ccc([N+](=O)[O-])cc3)n2)cc1C` [Compound 12]: 0.759 µM; for `Cc1ccc(Nc2nc(NN=Cc3cccc(I)c3)nc(Nc3ccccc3)n2)cc1` [Compound 30]: 54 µM.
`Oc1ccc(Br)cc1C=NNc1nc(Nc2cccc(C(F)(F)F)c2)nc(N2CCOCC2)n1` [Compound 246]: the EC50 turned out to be 5.2 µM.
Take `CCN(CC)c1nc(Nc2cccc(Br)c2)nc(Nc2cc(C)ccc2C)n1` [Compound 202]: the EC50 is more than 100 µM.
Still for that read-out and setting: for `Cc1ccc(Nc2nc(NCc3ccccc3)nc(NN=Cc3cc(Cl)ccc3O)n2)cc1C` [Compound 226] the value was more than 100 µM.
As to `Cc1ccc(Nc2nc(NNC(=O)c3ccccc3O)nc(Oc3ccc([N+](=O)[O-])cc3)n2)cc1C` [Compound 250], the EC50 is more than 100 µM.
As to `Ic1cccc(C=NNc2nc(Nc3ccc4ccccc4c3)nc(N3CCOCC3)n2)c1` [Compound 166], the EC50 is 1.4 µM.
As to `Oc1ccc(Br)cc1C=NNc1nc(Nc2cccc(Br)c2)nc(N2CCOCC2)n1` [Compound 232], the EC50 is more than 100 µM.
With `COc1ccc(Nc2nc(NN=Cc3ccc(O)cc3O)nc(N3CCOCC3)n2)cc1` [Compound 164], the EC50 was 0.863 µM.
With `CCCCN(CCCC)c1nc(NN=Cc2ccc(OCC)c(O)c2)nc(Nc2ccc([N+](=O)[O-])cc2)n1` [Compound 23], the concentration giving a half-maximal response (EC50) came out at 40 µM.
On the same count and under the same terms, for `COc1ccc(Br)cc1/C=N/Nc1nc(Nc2cccc([N+](=O)[O-])c2)nc(N2CCOCC2)n1` [Compound 28] the value was more than 100 µM; for `COc1ccc(Nc2nc(NN=Cc3ccc(Cl)cc3)nc(Nc3ccccc3)n2)cc1` [Compound 22], more than 100 µM; for `CC(=NNc1nc(Nc2ccccc2)nc(N2CCCC2)n1)c1ccc([N+](=O)[O-])cc1` [Compound 183], 52 µM.
Regarding `COc1c(Br)cc(Br)cc1C=NNc1nc(Nc2ccccc2)nc(N2CCCCC2)n1` [Compound 14], the EC50 was more than 100 µM.
Still for that read-out and setting: the same measure for `Cc1ccccc1Nc1nc(NN=Cc2ccc3c(c2)OCO3)nc(Nc2ccc([N+](=O)[O-])cc2)n1` [Compound 29]: 1.1 µM; for `O=[N+]([O-])c1ccc(Nc2nc(NCc3ccccc3)nc(NN=Cc3ccccc3)n2)cc1` [Compound 24]: 18 µM; for `Cc1ccc(Nc2nc(NN=Cc3cccc([N+](=O)[O-])c3)nc(Nc3ccccc3)n2)c(C)c1` [Compound 229]: more than 100 µM.
On the same count and under the same terms, for `Cc1ccc(Nc2nc(NN=Cc3ccccc3)nc(Nc3ccccc3)n2)c(C)c1` [Compound 7] the value was 33 µM.
Take `CNc1nc(NN=Cc2ccccc2C(F)(F)F)nc(Nc2cccc(C(F)(F)F)c2)n1` [Compound 253]: the EC50 amounted to 18 µM.
As for `FC(F)(F)c1cccc(Nc2nc(Nc3cccc(Cl)c3)nc(N3CCOCC3)n2)c1` [Compound 247], the concentration giving a half-maximal response (EC50) was more than 100 µM.
As for `Cc1[nH]c2ccccc2c1C=NNc1nc(Nc2ccccc2)nc(Nc2ccc([N+](=O)[O-])cc2)n1` [Compound 6], the EC50 came out at 0.3 µM.
The same measure, in the same setting: for `Cc1ccc(Nc2nc(NCc3ccccc3)nc(NN=Cc3ccc(F)cc3F)n2)cc1C` [Compound 191] the value was more than 100 µM; for `Oc1ccc(Cl)cc1C=NNc1nc(Nc2ccc3ccccc3c2)nc(N2CCOCC2)n1` [Compound 160], 0.42 µM; for `Fc1cccc(C=NNc2nc(Nc3ccccc3)nc(N3CCCC3)n2)c1` [Compound 201], more than 100 µM.
On the same count and under the same terms, for `COc1c(C=NNc2nc(NCc3ccccc3)nc(Nc3ccccc3)n2)cccc1[N+](=O)[O-]` [Compound 162] the value was 0.923 µM.
Consider `Cc1ccc(Nc2nc(NN=Cc3ccc(I)cc3)nc(Nc3ccccc3)n2)c(C)c1` [Compound 113], for which the concentration for a half-maximal effect (EC50) is more than 100 µM.
For the compound `CC(=NNc1nc(Nc2ccccc2)nc(N2CCCC2)n1)c1ccc(F)cc1` [Compound 227], the EC50 is more than 100 µM.
`Cc1ccc(Nc2nc(NN=Cc3ccc(Cl)cc3)nc(N3CCOCC3)n2)cc1Cl` [Compound 196]: the EC50 is more than 100 µM.
As to `C(=Cc1ccccc1)C=NNc1nc(Nc2ccccc2)nc(Nc2ccccc2)n1` [Compound 125], the EC50 was 3.9 µM.
Consider `Brc1cccc(C=NNc2nc(Nc3ccccc3)nc(N3CCOCC3)n2)c1` [Compound 163], for which the EC50 was 0.958 µM.
Take `Cc1ccc(Nc2nc(NN=Cc3ccc(O)cc3O)nc(Nc3ccc([N+](=O)[O-])cc3)n2)cc1C` [Compound 9]: the EC50 was 0.474 µM.
The same measure, in the same setting: for `Brc1ccc(Nc2nc(NCc3ccccc3)nc(Nc3ccc(Br)cc3)n2)cc1` [Compound 230] the value was more than 100 µM; for `Oc1ccccc1C=NNc1nc(Nc2ccccc2)nc(N2CCCCC2)n1` [Compound 169], 2.5 µM.
